Measurements: patent US10138271B2, “Native and agonist CTL epitopes of the MUC1 tumor antigen” (The United States of America, as represented by the …, priority 2012, dated 2018)

Tests used:
Type in all cases: cell-based, human
[1] = system: MUC1-C specific CD8+ T-cells; assay: HLA-A3 tetramer analysis of T-cell lines; details: T-cell line after 6 IVS cycles
Protocol: (§1) Phycoerythrin (PE) labeled HLA-A3-P432-3F10K and HLA-A3-P483-2L3F tetramers were prepared by the NIH Tetramer Core Facility (Atlanta, Ga.), and PE labeled MHC class I human negative tetramer (Kit No T01044) was obtained from Beckman Coulter Inc (Sykesville, Md.). […] The tetramers were used at a 1:100 dilution, and cells were stained for 45 minutes at 4° C. 1×10^5 cells were acquired on an LSRII (BD), and data was analyzed using FlowJo 9.0.1 software (Tree Star Inc, Ashland, Oreg.).
To determine the frequency of MUC1-C specific CD8^+ T-cells in the T-cell lines generated with peptides P432-3F10K and P483-2L3F, HLA-A3-P432-3F10K tetramer and HLA-A3-P483-2L3F tetramer analysis was used. After 6 IVS cycles, 20% and 16% of the T-cells bound to the P432-3F10K and P483-2L3F tetramer, respectively. 0.01% and 0.04% of the cells bound to a negative tetramer.

[2] = system: MUC1-C specific T-cell lines; assay: Cytokine production by MUC1-C specific T-cell lines with peptide-pulsed autologous B-cells (Multi-array)
Protocol: 2.2×10^6 T-cells and 5.5×10^6 autologous B-cells pulsed with peptide P432-3F10K or P483-2L3F were incubated for 24 h in […] medium per well. The supernatants were analyzed by Multi-array technology (Meso Scale Diagnostics, Gaitersburg, Md.) for detection of cytokines.
To test the ability of the MUC1-C peptides to induce cytokine production, P432-3F10K and P483-2L3F specific T-cell lines (1.1×10^6 T cells/mL) from two patients from the PANVAC ovarian cancer clinical trial described in Example 6 were incubated for 24 hours with autologous B-cells pulsed with P432-3F10K or P483-2L3F for 24 hours. The cytokine levels in supernatant of stimulated and unstimulated cells were evaluated.

[3] = system: CD8+ T cells in PBMCs from cancer patients; assay: Tetramer staining of patient PBMCs after 2 IVS cycles with peptide
Protocol: as §1
PBMCs from three patients from the clinical vaccine trial were stimulated for 2 IVS cycles with the autologous dendritic cells exposed to peptide P432-3F10K or P483-2L3F, and one week after the last stimulation the cells were subjected to FACS analysis after staining with CD8-FITC (20 μL) and either P432-3F10K/P483-2L3F-tetramer-PE (1 μL) or negative tetramer-PC (1 μL) for 45 minutes.
Results in Tables 9 and 10 are expressed as the frequency of tetramer positive cells from all CD8^+ T-cells.

[4] = system: CD8+ T-cells in PBMCs from carcinoma patients; assay: IFNγ ELISPOT assay, precursor frequency of specific T-cells in patient PBMCs; details: for Patients with specific IFNγ production upon stimulation with peptide: PBMCs pre and three months postvaccination; for Precursor frequency of specific T-cells: peptide 25 μg/mL
Protocol: Measurement of CD8 immune responses in HLA-A3^+ patients was conducted by enzyme-linked immunosorbent spot assay (ELISPOT) using a modification of the procedure described in Arlen et al., Cancer Immunol. Immunother., 49: 517-529 (2000). The assay was performed using K562-A3 cells as APC. ELISPOT measures the frequency of T cells releasing IFNγ in response to stimulation with a peptide. P432-3F10K, P483-2L3F, no peptide, or an HIV gag peptide (SEQ ID NO: 25; a negative control) were used. Pre- and Post-vaccination PBMCs from each patient were compared. A positive response was scored as a ≥2-fold increase in IFNγ-secreting cells. The spots were analyzed using an ImmunoSpot counter (Cellular Technology Ltd, Shaker Heights, Ohio).
To evaluate the presence of CD8^+ T-cells reactive to the P432-3F10K and P483-2L3F peptides in PBMCs from carcinoma patients enrolled in the clinical vaccine trial, an IFNγ ELISPOT assay was performed. The P432-3F10K and P483-2L3F peptides were used in an ELISPOT assay at a concentration of 25 μg/mL to determine the precursor frequency of specific T-cells. Peptide-pulsed K562-A3 cells were used as APC at an effector:APC ratio of 1:2. HIV peptide and no peptide were used as controls.

## SLFRSPYEK [Peptide P483-2L3F]
[1]
  T-cells bound to peptide/HLA-A3 tetramer: 16%
[2]; Patient I, IVS 7
  IFNγ: 180 pg/mL
  IL-2: 7 pg/mL
  IL-6: 12 pg/mL
  IL-12p70: 5 pg/mL
  TNFα: 46 pg/mL
[2]; Patient II, IVS 8
  IFNγ: 2590 pg/mL
  IL-2: 15 pg/mL
  IL-6: 150 pg/mL
  IL-12p70: 9 pg/mL
  TNFα: 470 pg/mL
[3]; patient III post-vaccination
  Frequency of tetramer positive cells from all CD8+ T-cells: 80.9%
[3]; patient III pre-vaccination
  Frequency of tetramer positive cells from all CD8+ T-cells: 64.7%
[3]; patient IV post-vaccination
  Frequency of tetramer positive cells from all CD8+ T-cells: 65.7%
[3]; patient IV pre-vaccination
  Frequency of tetramer positive cells from all CD8+ T-cells: 45.5%
[3]; patient V post-vaccination
  Frequency of tetramer positive cells from all CD8+ T-cells: 43.8%
[3]; patient V pre-vaccination
  Frequency of tetramer positive cells from all CD8+ T-cells: 53.5%
[4]
  Patients with specific IFNγ production upon stimulation with peptide: No patient had a specific reaction
[4]; Patient II, Post
  Precursor frequency of specific T-cells: <1/200000
[4]; Patient II, Pre
  Precursor frequency of specific T-cells: <1/200000
[4]; Patient III, Post
  Precursor frequency of specific T-cells: <1/200000
[4]; Patient III, Pre
  Precursor frequency of specific T-cells: <1/200000
[4]; Patient IV, Post
  Precursor frequency of specific T-cells: <1/200000
[4]; Patient IV, Pre
  Precursor frequency of specific T-cells: <1/200000
[4]; Patient IX, Post
  Precursor frequency of specific T-cells: <1/200000
[4]; Patient IX, Pre
  Precursor frequency of specific T-cells: <1/200000
[4]; Patient V, Post
  Precursor frequency of specific T-cells: <1/200000
[4]; Patient V, Pre
  Precursor frequency of specific T-cells: <1/200000
[4]; Patient VI, Post
  Precursor frequency of specific T-cells: <1/200000
[4]; Patient VI, Pre
  Precursor frequency of specific T-cells: <1/200000
[4]; Patient VII, Post
  Precursor frequency of specific T-cells: <1/200000
[4]; Patient VII, Pre
  Precursor frequency of specific T-cells: <1/200000
[4]; Patient VIII, Post
  Precursor frequency of specific T-cells: <1/200000
[4]; Patient VIII, Pre
  Precursor frequency of specific T-cells: <1/200000
[4]; Patient X, Post
  Precursor frequency of specific T-cells: <1/200000
[4]; Patient X, Pre
  Precursor frequency of specific T-cells: <1/200000
[4]; Patient XI, Post
  Precursor frequency of specific T-cells: <1/200000
[4]; Patient XI, Pre
  Precursor frequency of specific T-cells: <1/200000

## ALFIVYLIAK [Peptide P432-3F10K]
[1]
  T-cells bound to peptide/HLA-A3 tetramer: 20%
[2]; Patient I, IVS 7
  IFNγ: 350 pg/mL
  IL-2: 40 pg/mL
  IL-6: 16 pg/mL
  IL-12p70: 5 pg/mL
  TNFα: 180 pg/mL
[2]; Patient II, IVS 8
  IFNγ: 50 pg/mL
  IL-2: 3 pg/mL
  IL-6: 80 pg/mL
  IL-12p70: 7 pg/mL
  TNFα: 130 pg/mL
[3]; patient III post-vaccination
  Frequency of tetramer positive cells from all CD8+ T-cells: 59.9%
[3]; patient III pre-vaccination
  Frequency of tetramer positive cells from all CD8+ T-cells: 44.5%
[3]; patient IV post-vaccination
  Frequency of tetramer positive cells from all CD8+ T-cells: 23.8%
[3]; patient IV pre-vaccination
  Frequency of tetramer positive cells from all CD8+ T-cells: 22.0%
[3]; patient V post-vaccination
  Frequency of tetramer positive cells from all CD8+ T-cells: 22.0%
[3]; patient V pre-vaccination
  Frequency of tetramer positive cells from all CD8+ T-cells: 31.5%
[4]
  Patients with specific IFNγ production upon stimulation with peptide: 5 of 11
[4]; Patient II, Post
  Precursor frequency of specific T-cells: 1/2372
[4]; Patient II, Pre
  Precursor frequency of specific T-cells: 1/6316
[4]; Patient III, Post
  Precursor frequency of specific T-cells: 1/5455
[4]; Patient III, Pre
  Precursor frequency of specific T-cells: 1/6522
[4]; Patient IV, Post
  Precursor frequency of specific T-cells: 1/1322
[4]; Patient IV, Pre
  Precursor frequency of specific T-cells: 1/2000
[4]; Patient IX, Post
  Precursor frequency of specific T-cells: <1/200000
[4]; Patient IX, Pre
  Precursor frequency of specific T-cells: <1/200000
[4]; Patient V, Post
  Precursor frequency of specific T-cells: <1/200000
[4]; Patient V, Pre
  Precursor frequency of specific T-cells: <1/200000
[4]; Patient VI, Post
  Precursor frequency of specific T-cells: 1/21429
[4]; Patient VI, Pre
  Precursor frequency of specific T-cells: 1/4511
[4]; Patient VII, Post
  Precursor frequency of specific T-cells: <1/200000
[4]; Patient VII, Pre
  Precursor frequency of specific T-cells: <1/200000
[4]; Patient VIII, Post
  Precursor frequency of specific T-cells: <1/200000
[4]; Patient VIII, Pre
  Precursor frequency of specific T-cells: <1/200000
[4]; Patient X, Post
  Precursor frequency of specific T-cells: <1/200000
[4]; Patient X, Pre
  Precursor frequency of specific T-cells: <1/200000
[4]; Patient XI, Post
  Precursor frequency of specific T-cells: 1/7229
[4]; Patient XI, Pre
  Precursor frequency of specific T-cells: 1/4196
